The text below walks through data of paper PMC11915801, “Evolutionary trajectory of bacterial resistance to antibiotics and antimicrobial peptides in Escherichia coli” (mSystems, 2025).

≈ marks a conversion by molar mass, not a printed value. Where two headings read alike, the source gives them in different places. Where a SMILES comes first, the peptide text is derived from it.

What all share (assay): microbe, parasite or virus in culture
Holding throughout (type): cell-based, Escherichia coli

The subject of one experiment is E. coli K-12 MG1655. Particulars: for MIC: Escherichia coli. As for the experimental part:
(§1) The broth microdilution method was used to measure the MIC values of antibiotics and peptides according to the Clinical and Laboratory Standards Institute guidelines. The MIC value is defined as the lowest drug concentration without visible bacteria.
Eight antibiotics and ten AMPs at the sub-inhibitory concentration were prepared. A 300-µL system, including 260 µL of MH broth, 30 µL of prepared drug, and 10 µL of bacterial culture, was used for resistance passages. After 12 h of incubation at 37℃ and 200 rpm, 10 µL of the above bacterial culture was added into the new sterile drug-containing broth. MIC values of bacterial culture were determined. The drug concentration was adjusted according to the MIC value change until the end of the 120 passages.

The next experiment deals with AMP120 (evolved MG1655). The settings on record: broth microdilution, ampicillin-evolved strain.
Excerpt: (§2) To ensure the stable resistance evolution and inheritance of MG1655 under different drugs, we randomly selected three monoclonals from the evolved strains. The final antibiotic-evolved strains were designated as AMP120, AZI120, CHL80, CIP120, DOX120, KAN80, NIT70, and TMP30, while the final AMP-evolved strains were named COL120, Ind120, Omi120, Pex120, PGLA120, Pleu120, R8120, SAAP120, LI120, and SLAP120.
as §1

The next experiment has as its system AZI120 (evolved MG1655). Particulars: broth microdilution, azithromycin-evolved strain.
Excerpt: as §2, §1

A further experiment relates to CHL80 (evolved MG1655). Particulars: broth microdilution, chloramphenicol-evolved strain.
Excerpt: as §2, §1

The next experiment has as its system CIP120 (evolved MG1655). The settings on record: broth microdilution, ciprofloxacin-evolved strain.
Excerpt: as §2, §1
Background: Broth dilution looks for growth in wells or tubes with falling amounts of substance.

The test system of the next experiment is COL120 (evolved MG1655). Particulars: broth microdilution, colistin-evolved strain.
Excerpt: as §2, §1

The next experiment has as its system DOX120 (evolved MG1655). Particulars: broth microdilution, doxycycline-evolved strain.
Excerpt: as §2, §1

A further experiment has as its system KAN80 (evolved MG1655). Particulars: broth microdilution, kanamycin-evolved strain.
Excerpt: as §2, §1

The subject of another experiment is NIT70 (evolved MG1655). Particulars: broth microdilution, nitrofurantoin-evolved strain.
Excerpt: as §2, §1

The next experiment relates to TMP30 (evolved MG1655). The settings on record: broth microdilution, trimethoprim-evolved strain.
Excerpt: as §2, §1

As for `CC1(C)S[C@@H]2[C@H](NC(=O)[C@H](N)c3ccccc3)C(=O)N2[C@H]1C(=O)O` [AMP, Ampicillin], the MIC in the experiment on E. coli K-12 MG1655 (MG1655, 12 h, read-out: MIC of MG1655 under the pressure of the same drug, generation 10) is 8 µg/mL; with E. coli K-12 MG1655 (MG1655, read-out: MIC of MG1655 under the pressure of the same drug, generation primary), 4 µg/mL; in the experiment on E. coli K-12 MG1655 (MG1655, as E2, generation 20, read-out: MIC of MG1655 under the pressure of the same drug, generation 20), 8 µg/mL; with E. coli K-12 MG1655 (MG1655, as E2, generation 30, read-out: MIC of MG1655 under the pressure of the same drug, generation 30) it was 8 µg/mL; in the experiment on E. coli K-12 MG1655 (MG1655, as E2, generation 40, read-out: MIC of MG1655 under the pressure of the same drug, generation 40), 16 µg/mL; in the experiment with E. coli K-12 MG1655 (MG1655, as E2, generation 50, read-out: MIC of MG1655 under the pressure of the same drug, generation 50) it was 16 µg/mL. Besides, the MIC is 16 µg/mL with E. coli K-12 MG1655 (MG1655, as E2, generation 60, read-out: MIC of MG1655 under the pressure of the same drug, generation 60); 16 µg/mL in the experiment on E. coli K-12 MG1655 (MG1655, as E2, generation 70, read-out: MIC of MG1655 under the pressure of the same drug, generation 70); 16 µg/mL in the experiment on E. coli K-12 MG1655 (MG1655, as E2, generation 80, read-out: MIC of MG1655 under the pressure of the same drug, generation 80); 32 µg/mL in the experiment with E. coli K-12 MG1655 (MG1655, as E2, generation 90, read-out: MIC of MG1655 under the pressure of the same drug, generation 90); 32 µg/mL with E. coli K-12 MG1655 (MG1655, as E2, generation 100, read-out: MIC of MG1655 under the pressure of the same drug, generation 100); 64 µg/mL in the experiment on E. coli K-12 MG1655 (MG1655, as E2, generation 110, read-out: MIC of MG1655 under the pressure of the same drug, generation 110). Further, the MIC stood at 64 µg/mL in the experiment with E. coli K-12 MG1655 (MG1655, as E2, generation 120, read-out: MIC of MG1655 under the pressure of the same drug, generation 120); 64 µg/mL (≈ 183 µM) with AMP120 (evolved MG1655) (Escherichia coli, MG1655); 2 µg/mL (≈ 5.72 µM) against AZI120 (evolved MG1655) (Escherichia coli, MG1655); 64 µg/mL (≈ 183 µM) with CHL80 (evolved MG1655) (Escherichia coli, MG1655); 16 µg/mL (≈ 45.8 µM) against CIP120 (evolved MG1655) (Escherichia coli); 4 µg/mL (≈ 11.4 µM) in the experiment on COL120 (evolved MG1655) (Escherichia coli, MG1655). Besides, the MIC against DOX120 (evolved MG1655) (Escherichia coli, MG1655) turned out to be 32 µg/mL (≈ 91.6 µM); against KAN80 (evolved MG1655) (Escherichia coli, MG1655), 4 µg/mL (≈ 11.4 µM); against NIT70 (evolved MG1655) (Escherichia coli, MG1655), 4 µg/mL (≈ 11.4 µM); against TMP30 (evolved MG1655) (Escherichia coli, MG1655), 4 µg/mL (≈ 11.4 µM).

Turning to `CC(C)C[C@H](NC(=O)[C@H](CCCCN)NC(=O)[C@H](Cc1ccccc1)NC(=O)[C@@H](NC(=O)[C@H](CCCCN)NC(=O)CNC(=O)[C@H](CC(C)C)NC(=O)[C@@H](N)Cc1ccccc1)C(C)C)C(=O)N[C@@H](C)C(=O)N[C@@H](CO)C(=O)N[C@@H](CCCCN)C(=O)N[C@H](C(=O)N[C@@H](Cc1ccccc1)C(=O)N[C@@H](CCCCN)C(=O)N[C@@H](C)C(=O)N[C@H](C(=O)N[C@@H](Cc1ccccc1)C(=O)NCC(=O)N[C@@H](CCCCN)C(=O)N[C@H](C(=O)O)C(C)C)C(C)C)C(C)C` [R8] (H-FLGKVFKLASKVFKAVFGKV-OH), in the experiment on E. coli K-12 MG1655 (as E2, generation 20), the “MIC of MG1655 under the pressure of the same drug, generation 20” value came out at 4 µg/mL. Further, the “MIC of MG1655 under the pressure of the same drug, generation 30” value in the experiment on E. coli K-12 MG1655 (as E2, generation 30) amounted to 4 µg/mL. For the same compound, the “MIC of MG1655 under the pressure of the same drug, generation 40” value with E. coli K-12 MG1655 (as E2, generation 40) was determined as 4 µg/mL. For the same compound, in the experiment with E. coli K-12 MG1655 (as E2, generation 50), the “MIC of MG1655 under the pressure of the same drug, generation 50” value was determined as 4 µg/mL. In the experiment on E. coli K-12 MG1655 (as E2, generation 60), the “MIC of MG1655 under the pressure of the same drug, generation 60” value stood at 4 µg/mL. For the same compound, in the experiment on E. coli K-12 MG1655 (as E2, generation 70), the “MIC of MG1655 under the pressure of the same drug, generation 70” value is given as 4 µg/mL. In addition, the “MIC of MG1655 under the pressure of the same drug, generation 80” value in the experiment on E. coli K-12 MG1655 (as E2, generation 80) amounted to 4 µg/mL. For the same compound, the “MIC of MG1655 under the pressure of the same drug, generation 90” value in the experiment on E. coli K-12 MG1655 (as E2, generation 90) came to 4 µg/mL. Further, the “MIC of MG1655 under the pressure of the same drug, generation 100” value in the experiment on E. coli K-12 MG1655 (as E2, generation 100) came to 4 µg/mL. For the same compound, the “MIC of MG1655 under the pressure of the same drug, generation 110” value in the experiment on E. coli K-12 MG1655 (as E2, generation 110) is on record as 8 µg/mL. Also, the “MIC of MG1655 under the pressure of the same drug, generation 120” value in the experiment on E. coli K-12 MG1655 (as E2, generation 120) is recorded as 8 µg/mL. Moreover, in the experiment with E. coli K-12 MG1655 (broth microdilution (CLSI), primary MG1655 before passage), the “MIC of MG1655 under the pressure of the same drug, generation primary” value is given as 4 µg/mL. The “MIC of MG1655 under the pressure of the same drug, generation 10” value in the experiment on E. coli K-12 MG1655 (broth microdilution, line passaged in MH broth with sub-inhibitory drug, 12 h per passage, 37℃, generation 10) amounted to 4 µg/mL. The “MIC values of evolved MG1655, strain AMP120” value in the experiment on AMP120 (evolved MG1655) came to 4 µg/mL. Also, in the experiment on AZI120 (evolved MG1655), the “MIC values of evolved MG1655, strain AZI120” value came out at 8 µg/mL. In the experiment on CHL80 (evolved MG1655), the “MIC values of evolved MG1655, strain CHL80” value came to 8 µg/mL. For the same compound, the “MIC values of evolved MG1655, strain CIP120” value in the experiment with CIP120 (evolved MG1655) worked out at 8 µg/mL. Moreover, the “MIC values of evolved MG1655, strain COL120” value against COL120 (evolved MG1655) came to 4 µg/mL. Moreover, in the experiment on DOX120 (evolved MG1655), the “MIC values of evolved MG1655, strain DOX120” value stood at 8 µg/mL. Besides, in the experiment on KAN80 (evolved MG1655), the “MIC values of evolved MG1655, strain KAN80” value was 4 µg/mL. Besides, in the experiment with NIT70 (evolved MG1655), the “MIC values of evolved MG1655, strain NIT70” value worked out at 8 µg/mL. Besides, in the experiment on TMP30 (evolved MG1655), the “MIC values of evolved MG1655, strain TMP30” value stood at 8 µg/mL.
